15 compounds from PubChem BioAssay AID246 (DTP/NCI, 2004) can be followed below.

Several values for one entry are separate records, joined by “and”; a condition that tells them apart may be missing. Identical values can stand only once. Inconclusive results and toxic doses are left out.

This experiment concerns BDF1 mice, P1081 chloroleukemia ip, survival T/C. Kind of experiment: NCI In Vivo Anticancer Drug Screen. Data for tumor model P1081 Chloroleukemia (intraperitoneal) in B6D2F1 (BDF1) mice. As to conditions: endpoint: mean survival time, higher = longer survival. The method, then: The antitumor activity of compounds was measured in mice bearing transplantable tumors. Survival or tumor size were measured and the results are expressed as the measurement made in the treated group (T) divided by the measurement made in the vehicle treated control group (C). The tumor model used in this assay is P1081 Chloroleukemia (intraperitoneal) in B6D2F1 (BDF1) mice

Setting [1] is: dose: 25.0 mg/kg/injection, schedule: Q01DX010 (ip), vehicle: saline.
The mark [2] stands for this setting: dose: 10.0 mg/kg/injection, schedule: Q01DX010 (ip), vehicle: saline.
[3] abbreviates: dose: 20.0 mg/kg/injection, schedule: Q01DX010 (ip), vehicle: saline.
The mark [4] stands for this setting: dose: 40.0 mg/kg/injection, schedule: Q01DX010 (ip), vehicle: saline.
Setting [5] is: dose: 62.5 mg/kg/injection, schedule: Q01DX Z (sc), vehicle: steriod suspending solution.
The mark [6] stands for this setting: dose: 125.0 mg/kg/injection, schedule: Q01DX Z (sc), vehicle: steriod suspending solution.
The mark [7] stands for this setting: dose: 250.0 mg/kg/injection, schedule: Q01DX Z (sc), vehicle: steriod suspending solution.
[8] abbreviates: dose: 500.0 mg/kg/injection, schedule: Q01DX Z (sc), vehicle: steriod suspending solution.
Where [9] appears, read: dose: 5.0 mg/kg/injection, schedule: Q01DX010 (ip), vehicle: saline.

As for `CC(=O)OCC1OC(n2ncc(=O)[nH]c2=O)C(OC(C)=O)C1OC(C)=O` (stereo unspecified), the T/C is 100 % of control (dose: 118.0 mg/kg/injection, schedule: Q01DX Z (ip), vehicle: other); 93 % of control (dose: 235.0 mg/kg/injection, schedule: Q01DX Z (ip), vehicle: other); 115 % of control (dose: 468.75 mg/kg/injection, schedule: Q01DX Z (ip), vehicle: alkali diluted with saline); 91 % of control (dose: 469.0 mg/kg/injection, schedule: Q01DX Z (ip), vehicle: other); 121 % of control (dose: 1875.0 mg/kg/injection, schedule: Q01DX Z (ip), vehicle: alkali diluted with saline); 111 % of control (dose: 3750.0 mg/kg/injection, schedule: Q01DX Z (ip), vehicle: alkali diluted with saline).
As for `[I][Hg][CH2]C1COC([CH2][Hg][I])CO1` (stereo unspecified), the T/C is 110 % of control (dose: 6.25 mg/kg/injection, schedule: Q01DX010 (ip), vehicle: saline); 97 % of control (dose: 7.5 mg/kg/injection, schedule: Q01DX Z (ip), vehicle: carboxymethylcellulose (CMC)); 95 % of control (dose: 12.5 mg/kg/injection, schedule: Q01DX010 (ip), vehicle: saline); 119 % of control (dose: 15.0 mg/kg/injection, schedule: Q01DX Z (ip), vehicle: carboxymethylcellulose (CMC)); 90 % of control under setting [1]; 88 % of control and 103 % of control (dose: 60.0 mg/kg/injection, schedule: Q01DX Z (ip), vehicle: carboxymethylcellulose (CMC)).
Regarding `O=c1[nH]cc(F)c(=O)[nH]1`, the T/C (dose: 1.56 mg/kg/injection, schedule: Q01DX Z (ip), vehicle: saline) is 99 % of control; the T/C under setting [2] is 161 % of control and 165 % of control; the T/C (dose: 12.5 mg/kg/injection, schedule: Q01DX Z (ip), vehicle: saline) was 150 % of control; the T/C under setting [3] is 200 % of control and 230 % of control; the T/C under setting [4] is 110 % of control and 94 % of control; the T/C (dose: 50.0 mg/kg/injection, schedule: Q01DX Z (ip), vehicle: saline) was 108 % of control. Further, the T/C (dose: 100.0 mg/kg/injection, schedule: Q01DX Z (ip), vehicle: saline) is 96 % of control.
On to `C[C@]12CCC(=O)C=C1CC[C@@H]1[C@@H]2C(=O)C[C@@]2(C)[C@H]1CC[C@]2(O)C(=O)CO`, for which the T/C (dose: 6.25 mg/kg/injection, schedule: Q01DX Z (sc), vehicle: steriod suspending solution) is 103 % of control; the T/C (dose: 12.5 mg/kg/injection, schedule: Q01DX Z (sc), vehicle: steriod suspending solution) is 102 % of control; the T/C (dose: 25.0 mg/kg/injection, schedule: Q01DX Z (sc), vehicle: steriod suspending solution) is 123 % of control and 102 % of control; the T/C (dose: 50.0 mg/kg/injection, schedule: Q01DX Z (sc), vehicle: steriod suspending solution) is 111 % of control; the T/C (dose: 100.0 mg/kg/injection, schedule: Q01DX Z (sc), vehicle: steriod suspending solution) is 116 % of control.
Turning to `CC(=O)N(C)C`, the T/C is 100 % of control (dose: 62.5 mg/kg/injection, schedule: Q01DX010 (ip), vehicle: saline); 90 % of control and 95 % of control (dose: 125.0 mg/kg/injection, schedule: Q01DX010 (ip), vehicle: saline); 90 % of control and 95 % of control (dose: 250.0 mg/kg/injection, schedule: Q01DX010 (ip), vehicle: saline); 90 % of control and 95 % of control (dose: 500.0 mg/kg/injection, schedule: Q01DX010 (ip), vehicle: saline).
As for `C[C@]12CCC(=O)C[C@H]1CC[C@@H]1[C@@H]2CC[C@@]2(C)[C@H]1CC[C@]2(C)O`, the T/C was 114 % of control under setting [5], 100 % of control under setting [6], 110 % of control under setting [7] and 112 % of control under setting [8].
For the compound `N#[N+]c1cnc([O-])[nH]c1=O`, the T/C runs as follows: (dose: 1.25 mg/kg/injection, schedule: Q01DX010 (ip), vehicle: saline) 115 % of control; under setting [9], 160 % of control; under setting [2], 160 % of control and 166 % of control.
Take `CCN(CC)c1ccc2cc3ccc(=[N+](CC)CC)cc-3oc2c1`: the T/C by setting is: (dose: 0.31 mg/kg/injection, schedule: Q01DX Z (ip), vehicle: carboxymethylcellulose (CMC)) 101 % of control; (dose: 0.63 mg/kg/injection, schedule: Q01DX Z (ip), vehicle: carboxymethylcellulose (CMC)) 98 % of control; (dose: 1.25 mg/kg/injection, schedule: Q01DX Z (ip), vehicle: carboxymethylcellulose (CMC)) 108 % of control; (dose: 2.5 mg/kg/injection, schedule: Q01DX Z (ip), vehicle: carboxymethylcellulose (CMC)) 105 % of control and 114 % of control; (dose: 5.0 mg/kg/injection, schedule: Q01DX Z (ip), vehicle: carboxymethylcellulose (CMC)) 96 % of control.
In the case of `C[C@]12CCC(=O)C=C1CC[C@@H]1[C@@H]2CC[C@@]2(C)[C@H]1CC[C@]2(C)O`, the T/C was 101 % of control under setting [5]; 101 % of control under setting [6]; 106 % of control and 108 % of control under setting [7]; 91 % of control and 101 % of control under setting [8]; 100 % of control (dose: 1000.0 mg/kg/injection, schedule: Q01DX Z (sc), vehicle: steriod suspending solution).
With `O=c1[nH]c(=O)n(C2CC(O)C(CO)O2)cc1Br` (stereo unspecified), the T/C was 86 % of control (dose: 16.0 mg/kg/injection, schedule: Q01DX Z (ip), vehicle: carboxymethylcellulose (CMC)); 107 % of control and 88 % of control (dose: 31.0 mg/kg/injection, schedule: Q01DX Z (ip), vehicle: carboxymethylcellulose (CMC)); 106 % of control and 99 % of control (dose: 62.5 mg/kg/injection, schedule: Q01DX Z (ip), vehicle: carboxymethylcellulose (CMC)); 88 % of control (dose: 125.0 mg/kg/injection, schedule: Q01DX Z (ip), vehicle: carboxymethylcellulose (CMC)); 101 % of control (dose: 250.0 mg/kg/injection, schedule: Q01DX Z (ip), vehicle: carboxymethylcellulose (CMC)).
`N=C(N)SCc1c2ccccc2c(CSC(=N)N)c2ccccc12`: the T/C runs as follows: (dose: 2.5 mg/kg/injection, schedule: Q01DX010 (ip), vehicle: saline) 220 % of control; under setting [9], 183 % of control and 210 % of control; under setting [2], 155 % of control and 240 % of control; under setting [3], 172 % of control and 200 % of control; under setting [4], 122 % of control.
Consider `O=c1cnn(C2OC(CO)C(O)C2O)c(=O)[nH]1` (stereo unspecified), for which the T/C runs as follows: (dose: 62.5 mg/kg/injection, schedule: Q01DX Z (ip), vehicle: water) 94 % of control; (dose: 125.0 mg/kg/injection, schedule: Q01DX Z (ip), vehicle: water) 120 % of control and 90 % of control; (dose: 250.0 mg/kg/injection, schedule: Q01DX Z (ip), vehicle: water) 116 % of control and 121 % of control; (dose: 500.0 mg/kg/injection, schedule: Q01DX Z (ip), vehicle: water) 120 % of control; (dose: 1000.0 mg/kg/injection, schedule: Q01DX Z (ip), vehicle: water) 92 % of control; (dose: 1600.0 mg/kg/injection, schedule: Q01DX010 (ip), vehicle: saline) 100 % of control.
On to `CC(=O)NC1=C(N2CC2)C(=O)C(NC(C)=O)=C(N2CC2)C1=O`, for which the T/C runs as follows: (dose: 250.0 micrograms/kg/injection, schedule: Q01DX010 (ip), vehicle: saline) 188 % of control and 210 % of control; (dose: 500.0 micrograms/kg/injection, schedule: Q01DX010 (ip), vehicle: saline) 255 % of control and 270 % of control; (dose: 1000.0 micrograms/kg/injection, schedule: Q01DX010 (ip), vehicle: saline) 115 % of control.
`O=C(Nc1ccc(C2=NCCN2)cc1)c1ccc(C(=O)Nc2ccc(C3=NCCN3)cc2)c([N+](=O)[O-])c1`: the T/C by setting is: (dose: 6.0 mg/kg/injection, schedule: Q01DX010 (ip), vehicle: saline) 260 % of control and 288 % of control; (dose: 8.0 mg/kg/injection, schedule: Q01DX010 (ip), vehicle: saline) 285 % of control and 311 % of control; (dose: 12.0 mg/kg/injection, schedule: Q01DX010 (ip), vehicle: saline) 166 % of control and 250 % of control; (dose: 18.0 mg/kg/injection, schedule: Q01DX010 (ip), vehicle: saline) 120 % of control and 122 % of control.
Take `CS(=O)(=O)OCCC(=O)N1CCN(C(=O)CCOS(C)(=O)=O)CC1`: the T/C was 150 % of control and 285 % of control under setting [1]; 260 % of control and 277 % of control (dose: 50.0 mg/kg/injection, schedule: Q01DX010 (ip), vehicle: saline); 120 % of control and 205 % of control (dose: 100.0 mg/kg/injection, schedule: Q01DX010 (ip), vehicle: saline).
